Data reported in patent US20100152434A1, “Protein Kinase-binding Nucleosides and Associated Methods” (priority 2007, published 2010).
Read-outs that look alike come from different tables or passages of the source.

Assays:
[1] = test system: U251; assay: cells; details: Homo sapiens, U-251, 48 h
[2] = test system: UACC-62
[3] = test system: A549/ATCC; assay: cells; details: Homo sapiens, A549, 48 h
[4] = test system: BT-549
[5] = test system: NCI-H23
[6] = test system: SK-MEL-2; assay: cells; details: Homo sapiens, SK-MEL-2, 48 h
[7] = test system: EKVX
[8] = test system: TK-10
[9] = test system: OVCAR-5
[10] = test system: T-47D
[11] = test system: MALME-3M; assay: cells; details: Homo sapiens, 48 h
[12] = test system: MCF7
[13] = test system: HOP-92
[14] = test system: CCRF-CEM; assay: cells; details: Homo sapiens, 48 h
[15] = test system: SK-MEL-2
[16] = test system: IGROV1
[17] = test system: OVCAR-4; assay: cells; details: Homo sapiens, OVCAR-4, 48 h
[18] = test system: RXF 393; assay: cells; details: Homo sapiens, RXF 393, 48 h
[19] = test system: NCI-H226; assay: cells; details: Homo sapiens, NCI-H226, 48 h
[20] = test system: EKVX; assay: cells; details: Homo sapiens, 48 h
[21] = test system: NCI-H522; assay: cells; details: Homo sapiens, NCI-H522, 48 h
[22] = test system: HT29
[23] = test system: HCT-15
[24] = test system: MDA-MB-231/ATCC
[25] = test system: NCI/ADR-RES; assay: cells; details: Homo sapiens, 48 h
[26] = test system: 788-0; assay: cells; details: Homo sapiens, 48 h
[27] = test system: OVCAR-3
[28] = Log10 Concentration −4.0, Molar
[29] = Log10 Concentration −5.0, Molar
[30] = Log10 Concentration −6.0, Molar
[31] = Log10 Concentration −7.0, Molar
[32] = Log10 Concentration −8.0, Molar

SMILES: CCOC(=O)C[C@@H]1C(O[Si](C)(C)C(C)(C)C)[C@H](n2cnc3c(NC(=O)Nc4ccccc4)ncnc32)O[C@@H]1CNC(=O)NC (stereo partly shown) [Compound 10]
- GI50 [1]: 4.69 µM
- CC50 ([1]; read-out: LC50): 76 µM
- TGI ([2]; 48 h): >1.00E−4 Molar
- Percent Growth [2, 28]: 60%
- Percent Growth [2, 29]: 82%
- Percent Growth [2, 30]: 97%
- Percent Growth [2, 31]: 102%
- Percent Growth [2, 32]: 100%
- GI50 [3]: 4.18 µM
- CC50 ([3]; read-out: LC50): 79.1 µM
- TGI ([4]; 48 h): >1.00E−4 Molar
- Percent Growth [4, 28]: 51%
- Percent Growth [4, 29]: 67%
- Percent Growth [4, 30]: 110%
- Percent Growth [4, 31]: 109%
- Percent Growth [4, 32]: 104%
- TGI ([5]; 48 h): >1.00E−4 Molar
- Percent Growth [5, 28]: 36%
- Percent Growth [5, 29]: 65%
- Percent Growth [5, 30]: 100%
- Percent Growth [5, 31]: 100%
- Percent Growth [5, 32]: 101%
- GI50 [6]: 5.42 µM
- CC50 ([6]; read-out: LC50): > 100 µM
- TGI ([7]; 48 h): >1.00E−4 Molar
- Percent Growth [7, 28]: 42%
- Percent Growth [7, 29]: 53%
- Percent Growth [7, 30]: 91%
- Percent Growth [7, 31]: 90%
- Percent Growth [7, 32]: 92%
- TGI ([8]; 48 h): 4.05E−5 Molar
- Percent Growth [8, 28]: −38%
- Percent Growth [8, 29]: 59%
- Percent Growth [8, 30]: 105%
- Percent Growth [8, 31]: 103%
- Percent Growth [8, 32]: 98%
- TGI ([9]; 48 h): >1.00E−4 Molar
- Percent Growth [9, 28]: 27%
- Percent Growth [9, 29]: 72%
- Percent Growth [9, 30]: 95%
- Percent Growth [9, 31]: 103%
- Percent Growth [9, 32]: 104%
- TGI ([10]; 48 h): >1.00E−4 Molar
- Percent Growth [10, 28]: 13%
- Percent Growth [10, 29]: 16%
- Percent Growth [10, 30]: 73%
- Percent Growth [10, 31]: 89%
- Percent Growth [10, 32]: 91%
- GI50 [11]: 10.3 µM
- CC50 ([11]; read-out: LC50): > 100 µM
- TGI ([12]; 48 h): 4.51E−5 Molar
- Percent Growth [12, 28]: −8%
- Percent Growth [12, 29]: 16%
- Percent Growth [12, 30]: 89%
- Percent Growth [12, 31]: 91%
- Percent Growth [12, 32]: 96%
- Percent Growth [13, 28]: −61%
- Percent Growth [13, 29]: −32%
- Percent Growth [13, 30]: 12%
- Percent Growth [13, 31]: −1%
- Percent Growth [13, 32]: 4%
- GI50 [14]: 6.69 µM
- CC50 ([14]; read-out: LC50): > 100 µM
- TGI ([15]; 48 h): 3.31E−5 Molar
- Percent Growth [15, 28]: −30%
- Percent Growth [15, 29]: 32%
- Percent Growth [15, 30]: 99%
- Percent Growth [15, 31]: 94%
- Percent Growth [15, 32]: 102%
- TGI ([16]; 48 h): 1.80E−5 Molar
- Percent Growth [16, 28]: −58%
- Percent Growth [16, 29]: 20%
- Percent Growth [16, 30]: 93%
- Percent Growth [16, 31]: 94%
- Percent Growth [16, 32]: 94%
- GI50 [17]: 12.3 µM
- CC50 ([17]; read-out: LC50): > 100 µM
- GI50 [18]: 2.01 µM
- CC50 ([18]; read-out: LC50): 19.5 µM
- GI50 [19]: > 100 µM
- CC50 ([19]; read-out: LC50): > 100 µM
- GI50 [20]: 17.7 µM
- CC50 ([20]; read-out: LC50): > 100 µM
- GI50 [21]: 4.36 µM
- CC50 ([21]; read-out: LC50): > 100 µM
- TGI ([22]; 48 h): >1.00E−4 Molar
- Percent Growth [22, 28]: 3%
- Percent Growth [22, 29]: 17%
- Percent Growth [22, 30]: 104%
- Percent Growth [22, 31]: 105%
- Percent Growth [22, 32]: 104%
- TGI ([23]; 48 h): >1.00E−4 Molar
- Percent Growth [23, 28]: 43%
- Percent Growth [23, 29]: 47%
- Percent Growth [23, 30]: 94%
- Percent Growth [23, 31]: 96%
- Percent Growth [23, 32]: 99%
- TGI ([24]; 48 h): 4.13E−5 Molar
- Percent Growth [24, 28]: −13%
- Percent Growth [24, 29]: 20%
- Percent Growth [24, 30]: 94%
- Percent Growth [24, 31]: 103%
- Percent Growth [24, 32]: 101%
- GI50 [25]: > 100 µM
- CC50 ([25]; read-out: LC50): > 100 µM
- GI50 [26]: 2 µM
- TGI ([27]; 48 h): 1.72E−5 Molar
- Percent Growth [27, 28]: −53%
- Percent Growth [27, 29]: 16%
- Percent Growth [27, 30]: 116%
- Percent Growth [27, 31]: 115%
- Percent Growth [27, 32]: 114%
